From patent publication US8894927B2, “Shower sterilisation system and method of use thereof” (Omnia-Klenz Ltd., priority 2010, dated 2014)
Read-outs that look alike come from different tables or passages of the source.

How the values were obtained:
[1] = tested on: Legionella pneumophilia; assay type: cell-based
[2] = tested on: aerobic counts of shower water; assay: Hadfield office shower head, Petrifilm aerobic count after biocide treatment; conditions: for Mb. Analyses Aerobic: 0.5% solution, 30 min contact
[3] = tested on: Hepatatis; conditions: against Hepatatis; cited from earlier work
[4] = tested on: microbiological activity in shower apparatus; assay: Treatment of shower apparatus, microbiological activity / TVC; conditions: solution of around 250-500 ppm
Excerpt: The fall in TVCs or “kill” of the micro-activity following use of the first biocidal product alone or following a combination of use of the first biocidal product and second acidic sequestering product is similar but the time before significant re-inoculation is extended when the combination of the first and second compositions are used. In areas of high water hardness, the potential for re-inoculation is much higher than in areas of low water hardness and therefore the benefit of using an acidic sequestering product in combination with the biocidal product is much higher.
The biocidial composition of the present invention results in a fall in TVC from a starting level of approximately 10^5 cfu/ml to 20-500 cfu/ml.

[5] = tested on: HIV; conditions: against HIV; cited from earlier work
[6] = tested on: yeast and mold counts of shower water; assay: Hadfield office shower head, Petrifilm yeast and mold count after biocide treatment; conditions: 0.5% solution, 30 min contact
[7] = tested on: Legionella; conditions: cited from earlier work
[8] = tested on: Mycobacteria; conditions: against Mycobacteria; cited from earlier work
[9] = 555 ppm, 8 days (192 hours) since biocide first added, (1) Resting (8 days), 16 °C
[10] = 555 ppm, 8 days (192 hours) since biocide first added, (2) Shower running, 10 °C
[11] = 555 ppm, 8 days (192 hours) since biocide first added, (3) Shower running, 15 °C
[12] = 555 ppm, 8 days (192 hours) since biocide first added, (4) Shower running, 20 °C
[13] = 555 ppm, 8 days (192 hours) since biocide first added, (5) Shower running, 25 °C
[14] = 555 ppm, 8 days (192 hours) since biocide first added, (6) Shower running, 30 °C
[15] = 555 ppm, 8 days (192 hours) since biocide first added, (7) Shower running, 35 °C
[16] = 555 ppm, 8 days (192 hours) since biocide first added, (8) Shower running, 40 °C
[17] = 555 ppm, 8 days (192 hours) since biocide first added, (9) Shower running - full heat, 41 °C
[18] = 565 ppm, 24 hours after biocide addition, (1) Resting, 15 °C
[19] = 565 ppm, 24 hours after biocide addition, (2) Shower running, 10 °C
[20] = 565 ppm, 24 hours after biocide addition, (3) Shower running, 15 °C
[21] = 565 ppm, 24 hours after biocide addition, (4) Shower running, 20 °C
[22] = 565 ppm, 24 hours after biocide addition, (5) Shower running, 25 °C
[23] = 565 ppm, 24 hours after biocide addition, (6) Shower running, 30 °C
[24] = 565 ppm, 24 hours after biocide addition, (7) Shower running, 35 °C
[25] = 565 ppm, 24 hours after biocide addition, (8) Shower running, 40 °C
[26] = 565 ppm, 24 hours after biocide addition, (9) Shower running, 41 °C
[27] = 565 ppm, 48 hours after biocide addition, (1) Resting, 16 °C
[28] = 565 ppm, 48 hours after biocide addition, (2) Shower running, 10 °C
[29] = 565 ppm, 48 hours after biocide addition, (3) Shower running, 15 °C
[30] = 565 ppm, 48 hours after biocide addition, (4) Shower running, 20 °C
[31] = 565 ppm, 48 hours after biocide addition, (5) Shower running, 25 °C
[32] = 565 ppm, 48 hours after biocide addition, (6) Shower running, 30 °C
[33] = 565 ppm, 48 hours after biocide addition, (7) Shower running, 35 °C
[34] = 565 ppm, 48 hours after biocide addition, (8) Shower running, 40 °C
[35] = 565 ppm, 48 hours after biocide addition, (9) Shower running, 41 °C

Structure (SMILES): CCCCCCCCCCCCN(CCCN)CCCN [Lonzabac 12.100, N-(3-aminopropyl)-N-dodecylpropane-1,3-diamine]
- Biocidal effect ([1]; 100 ppm biocidal active, contact time 5 minutes): Biocidal
- Biocidal effect ([1]; 100 ppm biocidal active, contact time 10 minutes): Biocidal
- Biocidal effect ([1]; 100 ppm biocidal active, contact time 15 minutes): Biocidal
- Biocidal effect ([1]; 100 ppm biocidal active, contact time 30 minutes): Biocidal
- Biocidal effect ([1]; 200 ppm biocidal active, contact time 5 minutes): Biocidal
- Biocidal effect ([1]; 200 ppm biocidal active, contact time 10 minutes): Biocidal
- Biocidal effect ([1]; 200 ppm biocidal active, contact time 15 minutes): Biocidal
- Biocidal effect ([1]; 200 ppm biocidal active, contact time 30 minutes): Biocidal
- Biocidal effect ([1]; 300 ppm biocidal active, contact time 5 minutes): Biocidal
- Biocidal effect ([1]; 300 ppm biocidal active, contact time 10 minutes): Biocidal
- Biocidal effect ([1]; 300 ppm biocidal active, contact time 15 minutes): Biocidal
- Biocidal effect ([1]; 300 ppm biocidal active, contact time 30 minutes): Biocidal
- Biocidal effect ([1]; 500 ppm biocidal active, contact time 5 minutes): Biocidal
- Biocidal effect ([1]; 500 ppm biocidal active, contact time 10 minutes): Biocidal
- Biocidal effect ([1]; 500 ppm biocidal active, contact time 15 minutes): Biocidal
- Biocidal effect ([1]; 500 ppm biocidal active, contact time 30 minutes): Biocidal
- biocidal effect, summary of Table A ([1]; all concentrations (100-500 ppm), contact time as short as 5 minutes): biocidal to Legionella at all concentrations
- Mb. Analyses Aerobic [2, 9]: 10^5 cols/ml
- Mb. Analyses Aerobic [2, 10]: 1 cols/ml
- Mb. Analyses Aerobic [2, 11]: 3 cols/ml
- Mb. Analyses Aerobic [2, 12]: No growth
- Mb. Analyses Aerobic [2, 13]: No growth
- Mb. Analyses Aerobic [2, 14]: 9 cols/ml
- Mb. Analyses Aerobic [2, 15]: 1 cols/ml
- Mb. Analyses Aerobic [2, 16]: No growth
- Mb. Analyses Aerobic [2, 17]: 2 cols/ml
- Mb. Analyses Aerobic [2, 18]: 60 cols/ml
- Mb. Analyses Aerobic [2, 19]: No growth
- Mb. Analyses Aerobic [2, 20]: No growth
- Mb. Analyses Aerobic [2, 21]: No growth
- Mb. Analyses Aerobic [2, 22]: No growth
- Mb. Analyses Aerobic [2, 23]: 1 cols/ml
- Mb. Analyses Aerobic [2, 24]: No growth
- Mb. Analyses Aerobic [2, 25]: 2 cols/ml
- Mb. Analyses Aerobic [2, 26]: No growth
- Mb. Analyses Aerobic [2, 27]: 520 cols/ml
- Mb. Analyses Aerobic [2, 28]: 8 cols/ml
- Mb. Analyses Aerobic [2, 29]: 2 cols/ml
- Mb. Analyses Aerobic [2, 30]: No growth
- Mb. Analyses Aerobic [2, 31]: No growth
- Mb. Analyses Aerobic [2, 32]: No growth
- Mb. Analyses Aerobic [2, 33]: No growth
- Mb. Analyses Aerobic [2, 34]: 1 cols/ml
- Mb. Analyses Aerobic [2, 35]: No growth
- microbiological activity 8 days after treatment (Table 2) ([2]; before inclusion of wetting agents and other functional components): re-established itself
- concentration down to which effective [3]: ≥ 0.05%
- sterilisation of shower compared with 5 parts per million of BCDMH (L8 recommendations) [4]: more effective sterilisation was achieved for a longer period
- concentration down to which effective [5]: ≥ 0.05%
- Mb. Analyses Yeast/Mold [6, 9]: No growth
- Mb. Analyses Yeast/Mold [6, 10]: No growth
- Mb. Analyses Yeast/Mold [6, 11]: No growth
- Mb. Analyses Yeast/Mold [6, 12]: No growth
- Mb. Analyses Yeast/Mold [6, 13]: No growth
- Mb. Analyses Yeast/Mold [6, 14]: 1 yeast cols/ml
- Mb. Analyses Yeast/Mold [6, 15]: No growth
- Mb. Analyses Yeast/Mold [6, 16]: No growth
- Mb. Analyses Yeast/Mold [6, 17]: 1 yeast cols/ml
- Mb. Analyses Yeast/Mold [6, 18]: No growth
- Mb. Analyses Yeast/Mold [6, 19]: No growth
- Mb. Analyses Yeast/Mold [6, 20]: No growth
- Mb. Analyses Yeast/Mold [6, 21]: No growth
- Mb. Analyses Yeast/Mold [6, 22]: No growth
- Mb. Analyses Yeast/Mold [6, 23]: No growth
- Mb. Analyses Yeast/Mold [6, 24]: No growth
- Mb. Analyses Yeast/Mold [6, 25]: No growth
- Mb. Analyses Yeast/Mold [6, 26]: No growth
- Mb. Analyses Yeast/Mold [6, 27]: No growth
- Mb. Analyses Yeast/Mold [6, 28]: No growth
- Mb. Analyses Yeast/Mold [6, 29]: No growth
- Mb. Analyses Yeast/Mold [6, 30]: No growth
- Mb. Analyses Yeast/Mold [6, 31]: No growth
- Mb. Analyses Yeast/Mold [6, 32]: No growth
- Mb. Analyses Yeast/Mold [6, 33]: No growth
- Mb. Analyses Yeast/Mold [6, 34]: No growth
- Mb. Analyses Yeast/Mold [6, 35]: No growth
- concentration down to which effective [7]: ≥ 0.05%
- concentration down to which effective [8]: ≥ 0.05%
